Key:
[1] = target: human recombinant BACE2 (Homo sapiens (Human), UniProt Q9Y5Z0); experiment: In vitro enzymatic BACE2 FRET assay; assay type: biochemical; details: read-out: IC50 IP (μM) BACE2 enzyme
How it was run: (§1)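 Ni-NTA-purified recombinant protease incubated with compound; reaction started with 50 nM FRET peptide substrate (fluorophore/quencher flanking the BACE cleavage site) and run 1 h. Stopped with Tris buffer raising pH to neutral; fluorescence read at ex 488/em 590 nm.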

[2] = target: Recombinant Cat D (Homo sapiens (Human), UniProt P07339); experiment: In vitro enzymatic Cathepsin D (Cat D) FRET assay; assay type: biochemical; details: read-out: IC50 IP (μM) CatD
Recombinant Cat D, sequence (P07339 65-412): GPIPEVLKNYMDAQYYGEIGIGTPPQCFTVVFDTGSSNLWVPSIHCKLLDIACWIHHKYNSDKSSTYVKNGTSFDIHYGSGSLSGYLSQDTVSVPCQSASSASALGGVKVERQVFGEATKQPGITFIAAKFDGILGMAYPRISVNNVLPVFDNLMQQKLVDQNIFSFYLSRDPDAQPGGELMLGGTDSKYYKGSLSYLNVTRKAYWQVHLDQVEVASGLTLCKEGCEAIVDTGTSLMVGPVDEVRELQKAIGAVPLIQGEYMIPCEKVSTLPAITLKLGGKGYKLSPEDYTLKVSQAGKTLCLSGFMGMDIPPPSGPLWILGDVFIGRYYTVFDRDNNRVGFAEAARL
How it was run: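 Recombinant Cat D expressed in CHO cells, assayed in 0.05 M citrate pH 3.5 with 5 mM CHAPS and 10% DMSO final. Reaction started with 20 nM FRET peptide substrate, incubated one hour, then stopped by Tris buffer to neutral pH; fluorescence read at ex 500/em 580 nm.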

[3] = tested on: Aβ40 in conditioned medium of cells stably expressing Amyloid Precursor Protein (APP); experiment: In vitro BACE-1 cell-based assay (Aβ40 sandwich ELISA); details: read-out: IC50 IP (μM) BACE1 cell
How it was run: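 APP-expressing cells treated 24 h at 37 °C with compound in 10-point dose response (top 100 μM or 10 μM, 0.1% DMSO final). Secreted Aβ40 in conditioned medium quantified by sandwich ELISA (pAb40 capture, biotinylated 6E10 detection, time-resolved europium fluorescence); IC50 from percent inhibition versus concentration.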

[4] = target: human recombinant BACE1 (Homo sapiens (Human), UniProt P56817); experiment: In vitro enzymatic BACE1 FRET assay; assay type: biochemical; details: read-out: IC50 IP (μM) BACE1 enzyme
human recombinant BACE1, sequence (P56817 46-501): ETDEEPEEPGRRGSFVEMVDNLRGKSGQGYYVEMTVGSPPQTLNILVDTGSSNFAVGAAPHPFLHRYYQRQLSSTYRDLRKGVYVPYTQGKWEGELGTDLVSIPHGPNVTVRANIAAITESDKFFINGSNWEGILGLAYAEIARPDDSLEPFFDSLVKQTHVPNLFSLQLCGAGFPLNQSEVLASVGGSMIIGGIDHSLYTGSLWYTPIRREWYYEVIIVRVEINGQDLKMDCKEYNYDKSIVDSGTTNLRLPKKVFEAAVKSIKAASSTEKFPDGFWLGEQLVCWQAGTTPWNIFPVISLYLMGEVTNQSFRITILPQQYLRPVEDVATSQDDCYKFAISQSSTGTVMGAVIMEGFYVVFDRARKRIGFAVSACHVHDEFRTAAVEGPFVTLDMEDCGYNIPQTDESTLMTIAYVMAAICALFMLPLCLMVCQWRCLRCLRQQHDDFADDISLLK
How it was run: as §1

human recombinant BACE2, sequence (Q9Y5Z0 63-518): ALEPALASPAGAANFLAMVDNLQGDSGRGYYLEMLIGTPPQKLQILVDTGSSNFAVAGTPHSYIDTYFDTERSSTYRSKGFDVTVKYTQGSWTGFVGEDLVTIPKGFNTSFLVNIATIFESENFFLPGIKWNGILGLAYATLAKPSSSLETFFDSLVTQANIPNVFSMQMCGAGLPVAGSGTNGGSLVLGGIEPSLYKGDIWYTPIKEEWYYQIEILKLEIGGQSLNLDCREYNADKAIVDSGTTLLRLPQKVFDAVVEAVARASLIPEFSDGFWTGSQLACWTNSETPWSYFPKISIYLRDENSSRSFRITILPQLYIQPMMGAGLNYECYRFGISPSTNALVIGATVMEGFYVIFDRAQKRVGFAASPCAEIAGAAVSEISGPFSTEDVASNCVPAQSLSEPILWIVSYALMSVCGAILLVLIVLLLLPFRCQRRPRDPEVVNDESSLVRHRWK

IC50 [1]	IC50 [2]	IC50 [3]	IC50 [4]	SMILES
0.00602 µM	101 µM	0.000398 µM	0.000389 µM	C#CCOc1cnc(C(=O)Nc2ccc(F)c([C@@]3(C)N=C(N)S[C@@]4([C@H](O)C(F)(F)F)C[C@H]43)c2)cn1 [Example 673, N-(3-((1S,5S,6S)-3-amino-5-methyl-1-((1R)-2,2,2-trifluoro-1-hydroxyethyl)-2-thia-4-azabicyclo[4.1.0]hept-3-en-5-yl)-4-fluorophenyl)-5-(2-propyn-1-yloxy)-2-pyrazinecarboxamide]
0.0133 µM	149 µM	0.000776 µM	0.000368 µM	C#CCOc1cnc(C(=O)Nc2ccc(F)c([C@@]3(C)N=C(N)S[C@@]4([C@@H](O)C(F)(F)F)C[C@H]43)c2)cn1 [Example 674, N-(3-((1S,5S,6S)-3-amino-5-methyl-1-((1S)-2,2,2-trifluoro-1-hydroxyethyl)-2-thia-4-azabicyclo[4.1.0]hept-3-en-5-yl)-4-fluorophenyl)-5-(2-propyn-1-yloxy)-2-pyrazinecarboxamide]
0.703 µM	1010 µM	0.0519 µM	0.0124 µM	COC[C@]12C[C@H]1[C@@](C)(c1cc(NC(=O)c3ncc(OCC(F)(F)F)cc3C)cc(F)c1F)N=C(N)S2 [Example 675, N-(3-((1S,5S,6S)-3-amino-1-(methoxymethyl)-5-methyl-2-thia-4-azabicyclo[4.1.0]hept-3-en-5-yl)-4,5-difluorophenyl)-3-methyl-5-(2,2,2-trifluoroethoxy)-2-pyridinecarboxamide]
0.0157 µM	337 µM	0.0033 µM	0.00155 µM	C#CCOc1cnc2c(Nc3cnc(F)c([C@@]4(C)N=C(N)S[C@@]5([C@H](OC)C(F)(F)F)C[C@H]54)c3)nccc2n1 [Example 676, N-(5-((1S,5S,6S)-3-amino-5-methyl-1-((1R)-2,2,2-trifluoro-1-methoxyethyl)-2-thia-4-azabicyclo[4.1.0]hept-3-en-5-yl)-6-fluoro-3-pyridinyl)-2-(2-propyn-1-yloxy)pyrido[3,4-b]pyrazin-5-amine]
0.00948 µM	306 µM	0.00305 µM	0.0016 µM	C#CCOc1cnc2c(Nc3cnc(F)c([C@@]4(C)N=C(N)S[C@@]5([C@@H](OC)C(F)(F)F)C[C@H]54)c3)nccc2n1 [Example 677, N-(5-((1S,5S,6S)-3-amino-5-methyl-1-((1S)-2,2,2-trifluoro-1-methoxyethyl)-2-thia-4-azabicyclo[4.1.0]hept-3-en-5-yl)-6-fluoro-3-pyridinyl)-2-(2-propyn-1-yloxy)pyrido[3,4-b]pyrazin-5-amine]
0.789 µM	1450 µM	0.0555 µM	0.0109 µM	COC[C@]12C[C@H]1[C@@](C)(c1cc(NC(=O)c3ncc(OCC(F)(F)F)cc3C)ccc1F)N=C(N)S2 [Example 681, N-(3-((1S,5S,6S)-3-amino-1-(methoxymethyl)-5-methyl-2-thia-4-azabicyclo[4.1.0]hept-3-en-5-yl)-4-fluorophenyl)-3-methyl-5-(2,2,2-trifluoroethoxy)-2-pyridinecarboxamide]
0.0267 µM	2100 µM	0.008 µM	0.00391 µM	C#CCOc1cnc(C(=O)Nc2ccc(F)c([C@@]3(C)N=C(N)S[C@@]4(COC)C[C@H]43)c2)c(C)c1 [Example 683, N-(3-((1S,5S,6S)-3-amino-1-(methoxymethyl)-5-methyl-2-thia-4-azabicyclo[4.1.0]hept-3-en-5-yl)-4-fluorophenyl)-3-methyl-5-(2-propyn-1-yloxy)-2-pyridinecarboxamide]
0.0332 µM	1040 µM	0.00684 µM	0.00146 µM	C#CCOc1cnc(C(=O)Nc2cc(F)c(F)c([C@@]3(C)N=C(N)S[C@@]4(CF)C[C@H]43)c2)c(C)c1 [Example 684, N-(3-((1S,5S,6S)-3-amino-1-(fluoromethyl)-5-methyl-2-thia-4-azabicyclo[4.1.0]hept-3-en-5-yl)-4,5-difluorophenyl)-3-methyl-5-(2-propyn-1-yloxy)-2-pyridinecarboxamide]
0.018 µM	463 µM	0.0197 µM	0.00112 µM	C#CCOc1cnc(C(=O)Nc2cc(F)c(F)c([C@@]3(C)N=C(N)S[C@@]4(C(F)F)C[C@@H]34)c2)c(C)c1 [Example 685, N-(3-((1S,5S,6S)-3-amino-1-(difluoromethyl)-5-methyl-2-thia-4-azabicyclo[4.1.0]hept-3-en-5-yl)-4,5-difluorophenyl)-3-methyl-5-(2-propyn-1-yloxy)-2-pyridinecarboxamide]
0.0221 µM	496 µM	0.00967 µM	0.00167 µM	C#CCOc1cnc(C(=O)Nc2ccc(F)c([C@@]3(C)N=C(N)S[C@@]4(C(F)F)C[C@@H]34)c2)c(C)c1 [Example 686, N-(3-((1S,5S,6S)-3-amino-1-(difluoromethyl)-5-methyl-2-thia-4-azabicyclo[4.1.0]hept-3-en-5-yl)-4-fluorophenyl)-3-methyl-5-(2-propyn-1-yloxy)-2-pyridinecarboxamide]
2.52 µM	> 400 µM	0.569 µM	0.117 µM	COC[C@]12C[C@H]1[C@@](C)(c1cc(NC(=O)c3ncc(O[C@@H](C)c4ncco4)cc3C)cc(F)c1F)N=C(N)S2 [Example 687, N-(3-((1S,5S,6S)-3-amino-1-(methoxymethyl)-5-methyl-2-thia-4-azabicyclo[4.1.0]hept-3-en-5-yl)-4,5-difluorophenyl)-3-methyl-5-((1S)-1-(1,3-oxazol-2-yl)ethoxy)-2-pyridinecarboxamide]
0.709 µM	1320 µM	3.89 µM	0.548 µM	COC[C@]12C[C@H]1[C@@](C)(c1cc(NC(=O)c3ncc(O[C@H](C)c4ncco4)cc3C)cc(F)c1F)N=C(N)S2 [Example 688]
0.026 µM	675 µM	0.00779 µM	0.00418 µM	C#CCOc1cnc(C(=O)Nc2ccc(F)c([C@@]3(C)N=C(N)S[C@@]4(CF)C[C@H]43)c2)c(C)c1 [Example 690, N-(3-((1S,5S,6S)-3-amino-1-(fluoromethyl)-5-methyl-2-thia-4-azabicyclo[4.1.0]hept-3-en-5-yl)-4-fluorophenyl)-3-methyl-5-(2-propyn-1-yloxy)-2-pyridinecarboxamide]
0.0231 µM	728 µM	0.00563 µM	0.000673 µM	C#CCOc1cnc(C(=O)Nc2cc(F)c(F)c([C@@]3(C)N=C(N)S[C@@]4(CF)C[C@H]43)c2)c(Cl)c1 [Example 691, N-(3-((1S,5S,6S)-3-amino-1-(fluoromethyl)-5-methyl-2-thia-4-azabicyclo[4.1.0]hept-3-en-5-yl)-4,5-difluorophenyl)-3-chloro-5-(2-propyn-1-yloxy)-2-pyridinecarboxamide]
0.29 µM	> 400 µM	0.0453 µM	0.0053 µM	C[C@]1(c2cc(NC(=O)c3ccc(OCC(F)(F)F)cn3)cc(F)c2F)N=C(N)S[C@@]2(CF)C[C@H]21 [Example 692, N-(3-((1S,5S,6S)-3-amino-1-(fluoromethyl)-5-methyl-2-thia-4-azabicyclo[4.1.0]hept-3-en-5-yl)-4,5-difluorophenyl)-5-(2,2,2-trifluoroethoxy)-2-pyridinecarboxamide]
0.246 µM	1200 µM	0.0489 µM	0.00294 µM	C[C@]1(c2cc(NC(=O)c3ncc(OCC(F)(F)F)cc3Cl)cc(F)c2F)N=C(N)S[C@@]2(CF)C[C@H]21 [Example 693, N-(3-((1S,5S,6S)-3-amino-1-(fluoromethyl)-5-methyl-2-thia-4-azabicyclo[4.1.0]hept-3-en-5-yl)-4,5-difluorophenyl)-3-chloro-5-(2,2,2-trifluoroethoxy)-2-pyridinecarboxamide]
0.263 µM	> 400 µM	0.0883 µM	0.00272 µM	C[C@]1(c2cc(NC(=O)c3ccc(OCC(F)(F)F)cn3)cc(F)c2F)N=C(N)S[C@@]2(C(F)F)C[C@@H]12 [Example 695, N-(3-((1S,5S,6S)-3-amino-1-(difluoromethyl)-5-methyl-2-thia-4-azabicyclo[4.1.0]hept-3-en-5-yl)-4,5-difluorophenyl)-5-(2,2,2-trifluoroethoxy)-2-pyridinecarboxamide]
0.324 µM	846 µM	0.0707 µM	0.0062 µM	C[C@]1(c2cc(NC(=O)c3ccc(OCC(F)(F)F)cn3)ccc2F)N=C(N)S[C@@]2(C(F)F)C[C@@H]12 [Example 696, N-(3-((1S,5S,6S)-3-amino-1-(difluoromethyl)-5-methyl-2-thia-4-azabicyclo[4.1.0]hept-3-en-5-yl)-4-fluorophenyl)-5-(2,2,2-trifluoroethoxy)-2-pyridinecarboxamide]
0.0524 µM	138 µM	0.0352 µM	0.00106 µM	C[C@]1(c2cc(NC(=O)c3ccc(OCC(F)(F)F)cn3)cc(F)c2F)N=C(N)S[C@@]2(C(=O)N3CCCC3)C[C@H]21 [Example 699, N-(3-((1S,5S,6S)-3-amino-5-methyl-1-(1-pyrrolidinylcarbonyl)-2-thia-4-azabicyclo[4.1.0]hept-3-en-5-yl)-4,5-difluorophenyl)-5-(2,2,2-trifluoroethoxy)-2-pyridinecarboxamide]
